Entries after “also recorded” stand apart in the source; their conditions may differ.
Legend:
[1] = system: Porcine Reproductive and Respiratory Syndrome virus (PRRS); assay: Cytopathic effect (CPE) in Vero cells infected with PRRS virus, MCFA mixtures added; assay type: cell-based; set-up: key: 4 = total destruction of the cells; 3 = medium destruction; 2 = low destruction; 1 = no destruction; settings: 0.1% concentration in tissue culture, 5 days post infection
[2] = system: African Swine Fever Virus (ASFV)
PED virus = assay type: cell-based, Porcine Epidemic Diarrhea virus
ASF = system: ASF; set-up: species or system African Swine Fever Virus

| Structure (SMILES) | CPE (first test) [1] | CPE (second test) [1] | Cq value for ASFV compared to positive control [2] | Protection against viral infection and cytolytic effect of the cells (PED virus) | Viral load of ASF compared with ester form or untreated feed (ASF) |
| --- | --- | --- | --- | --- | --- |
| CCCCCCCCCC(=O)O [100% C10, capric acid] | 2 | 4 | – | – | – |
| CCCCCC(=O)O [100% C6, caproic acid] | 3/3 | 3/3 | – | – | – |
| CCCCCCCCC(=O)O [Composition F1, pelargonic acid] | – | – | significantly increase the Cq value; also recorded: induced a statistical increase in Cq value | – | – |
| CCCCCCCC(=O)O [100% C8, caprylic acid] | 2/2 | 2/2 | – | – | – |
| CCCCCCCCC(=O)O [100% C9, pelargonic acid] | 2/2 | 2/2 | – | gave the best results | significantly reduced the viral load |

From patent publication US20240075003A1, “Pelargonic Acid for Use Against Viral Infections” (priority 2021, published 2024)
